Experimental data: US20070032477A1, “Pteridine derivatives useful for making pharmaceutical compositions” (priority 2003, published 2007)
pIC50: −log10 of the molar value.

Assays:
[1] = tested on: mixed lymphocyte reaction (PBMC with allogeneic PBMC or Eppstein-Barr Virus-transformed human B cells as stimulator cells); experiment: Mixed lymphocyte reaction (MLR) assay; type: cell-based; settings: lowest concentration giving 50% suppression of the MLR; [3H]-thymidine
Protocol: Pteridine derivatives were first dissolved (10 mM) in dimethylsulfoxide (hereinafter referred as DMSO) and further diluted in culture medium before use for the following in vitro experiments. The commercially available culture medium consisted of RPMI-1640+10% foetal calf serum (FCS). Some pteridine derivatives described in the previous examples (as indicated in table 1) were tested in the following mixed lymphocyte reaction (MLR) assay.
Peripheral blood mononuclear cells (hereinafter referred as PBMC) were isolated from heparinized peripheral blood by density gradient centrifugation over Lymphoprep (Nycomed, Maorstua, Norway). Allogeneic PBMC or Eppstein-Barr Virus-transformed human B cells [commercially available under the trade name RPM11788 (ATCC name CCL156)] which strongly express B7-1 and B7-2 antigens were used as stimulator cells after irradiation with 30 Gy. MLR was performed in triplicate wells. After 5 days incubation at 37° C., 1 μCi [^3H]-thymidine was added to each cup. After a further 16 hours incubation, cells were harvested and counted in a […]. Inhibition of proliferation by a compound (drug) described in some of the previous examples was counted using the formula: [formula] wherein cpm is the thymidine count per minute. The MLR assay is regarded by those skilled in the art as an in vitro analogue of the transplant rejection since it is based on the recognition of allogeneic major histocompatibility antigens on the stimulator leukocytes, by responding lymphocytes.

[2] = tested on: production of TNF-α by PBMC in response to stimulation by LPS; experiment: TNF-α assay; type: cell-based, human; settings: LPS 1 μg/ml, 72 hours, sandwich ELISA
Protocol: Peripheral blood mononuclear cells (herein referred as PBMC), in response to stimulation by lipopolysaccharide (hereinafter LPS), a gram-negative bacterial endotoxin, produce various […], in particular human TNF-α. Inhibition of the activation of PBMC can therefore be measured by the level of suppression of the production of TNF-α by PBMC in response to stimulation by LPS.
Such inhibition measurement was performed as follows: PBMC were isolated from heparinized peripheral blood by density gradient centrifugation over Lymphoprep (commercially available from Nycomed, Norway). LPS was then added to the PMBC suspension in complete medium (10^6 cells/ml) at a final concentration of 1 μg/ml. The pteridine derivative to be tested was added at different concentrations (0.1 μM, 1 μM and 10 μM) and the cells were incubated at 37° C. for 72 hours in 5% CO2. The supernatants were collected, then TNF-α concentrations were measured with respectively an anti-TNF-α antibody in a sandwich ELISA (Duo Set ELISA human TNFα, commercially available from R&D Systems, United Kingdom). The calorimetric reading of the ELISA was measured by a Multiskan RC plate reader (commercially available from ThermoLabsystems, Finland) at 450 nm (reference wavelength: 690 nm). Data analysis was performed with Ascent software 2.6. (also from ThermoLabsystems, Finland): a standard curve (recombinant human TNFα) was drawn and the amount (pg/ml) of each sample on the standard curve was determined.
The % suppression of human TNFα production by the pteridine derivatives of the invention (drugs) was calculated using the formula: [formula]

Row | Compound | pIC50 [1] | pIC50 [2]
1 | COc1ccc(-c2cnc3nc(N)nc(N4CCN(C(=O)Oc5ccccc5Cl)CC4)c3n2)cc1OC [Example 96, 2-amino-4-[N-(2-chloro)-phenoxy-carbonyl-piperazin-1-yl]-6-(3,4-dimethoxyphenyl)pteridine] | 6.82 | 8.00
2 | COCCOC(=O)N1CCN(c2nc(N)nc3ncc(-c4ccc(OC)c(OC)c4)nc23)CC1 [Example 97] | 6.62 | 6.52
3 | COc1ccc(-c2cnc3nc(N)nc(N4CCN(C(=O)Nc5ccccc5)CC4)c3n2)cc1OC [Example 99, 2-amino-4-(N-phenyl-carbamoyl-piperazin-1-yl)-6-(3,4-dimethoxyphenyl)pteridine] | 8.47 | 7.05
4 | COc1ccc(-c2cnc3nc(N)nc(N4CCN(C(=O)Nc5ccc(C#N)cc5)CC4)c3n2)cc1OC [Example 102, 2-amino-4-(N-4-cyanophenylcarbamoyl-piperazin-1-yl)-6-(3,4-dimethoxyphenyl)pteridine] | 7.13 | 6.20
5 | COc1ccc(-c2cnc3nc(N)nc(N4CCN(C(=O)Nc5cccc(C)c5)CC4)c3n2)cc1OC [Example 103, 2-amino-4-(N-3-methylphenylcarbamoyl-piperazin-1-yl)-6-(3,4-dimethoxyphenyl)pteridine] | 8.19 | 7.00
6 | COc1ccc(-c2cnc3nc(N)nc(N4CCN(C(=O)NCc5ccc(F)cc5)CC4)c3n2)cc1OC [Example 105, 2-amino-4-(N-4-fluorobenzylcarbamoyl-piperazin-1-yl)-6-(3,4-dimethoxyphenyl)pteridine] | 7.43 | 6.15
7 | COc1ccc(-c2cnc3nc(N)nc(N4CCN(C(=O)Nc5ccc(F)c(Cl)c5)CC4)c3n2)cc1OC [Example 106, 2-amino-4-(N-3-chloro-4-fluorophenylcarbamoyl-piperazin-1-yl)-6-(3,4-dimethoxyphenyl)pteridine] | 7.24 | 5.85
8 | CCCCNC(=O)N1CCN(c2nc(N)nc3ncc(-c4ccc(OC)c(OC)c4)nc23)CC1 [Example 109, 2-amino-4-[(N-butyl-carbamoyl-piperazin-1-yl)]-6-(3,4-dimethoxyphenyl)pteridine] | 7.00 | 6.40
9 | COc1ccc(-c2cnc3nc(N)nc(N4CCN(C(=O)N(C)c5ccccc5)CC4)c3n2)cc1OC [Example 117, 2-amino-4-(N-methyl-N-phenyl-carbamoyl-piperazin-1-yl)-6-(3,4-dimethoxyphenyl)pteridine] | 7.14 | 7.30
10 | COc1ccc(-c2cnc3nc(N)nc(N4CCN(C(=O)N(C)c5ccc(C)cc5)CC4)c3n2)cc1OC [Example 119, 2-amino-4-(N-methyl-N-tolyl-carbamoyl-piperazin-1-yl)-6-(3,4-dimethoxyphenyl)pteridine] | 6.52 | 6.59
11 | COc1ccc(-c2cnc3nc(N)nc(N4CCN(CCN(C(C)C)C(C)C)CC4)c3n2)cc1OC [Example 128, 2-amino-4-(1-(2-diisopropylaminoethyl)-piperazino)-6-(3,4-dimethoxyphenyl)pteridine] | 5.13 | 5.48
12 | COc1ccc(-c2cnc3nc(N)nc(N4CCN(CCN5CCOCC5)CC4)c3n2)cc1OC [Example 129, 2-amino-4-(1-(2-morpholino4-yl-ethyl)-piperazino)-6-(3,4-dimethoxyphenyl)pteridine] | 5.60 | 6.10
13 | COc1ccc(-c2cnc3nc(N)nc(N4CCN(C(=O)CN5CCOCC5)CC4)c3n2)cc1OC [Example 130, 2-amino-4-(4-[2-(piperazin-1-yl)-acetyl]-morpholino)-6-(3,4-dimethoxy-phenyl)pteridine] | 5.82 | 5.85
14 | CCOC(=O)C(C)N1CCN(c2nc(N)nc3ncc(-c4ccc(OC)c(OC)c4)nc23)CC1 (centres unmarked) [Example 133, 2-amino-4-(2-(piperazin-1-yl)-propionic acid ethyl ester)-6-(3,4-dimethoxyphenyl)pteridine] | 5.92 | 6.48
15 | COc1ccc(-c2cnc3nc(N)nc(N4CCN(Cc5c(Cl)cccc5Cl)CC4)c3n2)cc1OC [Example 137, 2-amino-4-[(2,6-dichlorobenzyl)piperazin-1-yl]-6-(3,4-dimethoxyphenyl)pteridine] | 5.12 | 6.15
16 | COc1ccc(-c2cnc3nc(N)nc(N4CCN(Cc5ccccc5F)CC4)c3n2)cc1OC [Example 141, 2-amino-4-((2-fluorobenzyl)piperazin-1-yl)-6-(3,4-dimethoxyphenyl)pteridine] | 6.15 | 6.70
17 | COc1ccc(-c2cnc3nc(N)nc(N4CCN(Cc5ccc(C(C)(C)C)cc5)CC4)c3n2)cc1OC [Example 144, 2-amino-4-((4-tert-butylbenzyl)piperazin-1-yl)-6-(3,4-dimethoxyphenyl)pteridine] | 5.37 | 6.15
18 | COc1ccc(-c2cnc3nc(N)nc(N4CCN(c5ccncc5)CC4)c3n2)cc1OC [Example 145, 2-amino-4-((4-pyridyl)-piperazin-1-yl)-6-(3,4-dimethoxyphenyl)pteridine] | 5.46 | 5.36
19 | COc1ccc(-c2cnc3nc(N)nc(N4CCN(Cc5cccc6ccccc56)CC4)c3n2)cc1OC [Example 158, 2-amino-4-((1-naphtylmethyl)-piperazin-1-yl)-6-(3,4-dimethoxyphenyl)pteridine] | 6.10 | 6.15
20 | COc1ccc(-c2cnc3nc(N)nc(N4CCN(c5ccccc5OC)CC4)c3n2)cc1OC [Example 160, 2-amino-4-((2-methoxyphenyl)-piperazin-1-yl)-6-(3,4-dimethoxyphenyl)pteridine] | 5.42 | 6.38
21 | COc1ccc(-c2cnc3nc(N)nc(N4CCN(CCC#N)CC4)c3n2)cc1OC [Example 163, 2-amino-6-(3,4-dimethoxyphenyl)-4-(4-(3-propionitril)-piperazin-1-yl)pteridine] | 6.30 | 6.30
22 | COc1ccc(-c2cnc3nc(N)nc(N4CCN(CC(C)C)CC4)c3n2)cc1OC [Example 168, 2-amino-6-(3,4-dimethoxyphenyl)-4-(1-isobutyl-piperazin-1-yl)pteridine] | 5.80 | 7.05
23 | COc1ccc(-c2cnc3nc(N)nc(N4CCN(c5cc(Cl)cc(Cl)c5)CC4)c3n2)cc1OC [Example 171, 2-amino-4-((3,5-dichlorophenyl)-piperazin-1-yl)-6-(3,4-dimethoxyphenyl)pteridine] | 5.47 | 6.30
24 | COc1ccc(-c2cnc3nc(N)nc(N4CCN(Cc5ccccn5)CC4)c3n2)cc1OC [Example 177, 2-amino-6-(3,4-dimethoxyphenyl)-4-((2-pyridyl)methyl-piperazin-1-yl)pteridine] | 6.10 | 7.05
25 | COc1ccc(-c2cnc3nc(N)nc(N4CCN(CC5CCCN(C)C5)CC4)c3n2)cc1OC (centres unmarked) [Example 179, 2-amino-6-(3,4-dimethoxyphenyl)-4-(1-(1-methyl-piperidin-3-yl-methyl)-piperazin-1-yl)pteridine] | 5.10 | 5.74
26 | COc1ccc(-c2cnc3nc(N)nc(N4CCN(c5ccc(C(F)(F)F)cc5[N+](=O)[O-])CC4)c3n2)cc1OC [Example 185, 2-amino-4-[4-trifluoromethyl-2-nitro-phenyl-piperazin-1-yl)-6-(3,4-dimethoxyphenyl)pteridine] | 5.72 | 6.30
27 | COc1ccc(-c2cnc3nc(N)nc(N4CCN(c5ccc([N+](=O)[O-])cc5C(F)(F)F)CC4)c3n2)cc1OC [Example 186, 2-amino-4-[2-trifluoromethyl-4-nitro-phenyl-piperazin-1-yl)-6-(3,4-dimethoxyphenyl)pteridine] | 5.30 | 6.40
28 | COc1ccc(-c2cnc3nc(N)nc(N4CCN(C(=O)Nc5cccc(Cl)c5)CC4)c3n2)cc1OC [Example 193, 2-amino-4-(N-3-chloro-phenyl-carbamoyl-piperazin-1-yl)-6-(3,4-dimethoxyphenyl)pteridine] | 7.44 | 6.30
